Patent US11787766B2, “Compound having PD-L1 inhibitory activity, preparation method therefor and use thereof” (SHANGHAI ENNOVABIO PHARMACEUTICALS CO., LTD., priority 2017, dated 2023)
pIC50: −log10 of the molar value.

Target: PD-L1 (Homo sapiens (Human), UniProt Q9NZQ7)
Assay: PD-1/PD-L1 homogeneous time-resolved fluorescence (HTRF) binding assay
Settings: Cisbio PD1/PD-L1 binding assay kit
From the text: PD-1/PD-L1 homogeneous time-resolved fluorescence (HTRF) detection technology was used to detect the binding ability of the compound to PD-L1.
PD1/PD-L1 binding assay kit (Cisbio, Cat #63ADK000CPDEC) was used, which includes two proteins, Tag 1-PD-L1 and Tag 2-PD-1, and two antibodies, Anti-Tag1-Eu^3+ and Anti-Tag2-XL 665. Assay principle: Anti-tag1-Eu^3+ is the HTRF donor, and Anti-Tag2-XL 665 is the HTRF acceptor. When Tag 1-PD-L1 and Tag 2-PD-1 interact, the added HTRF donor and the acceptor are close to each other. After the donor receives the excitation energy, it transfers part of the energy to the acceptor, thus producing 665 nm emission signal. When the compound is added to block the PD1/PD-L1 interaction, only 620 nm emission light was detected. The inhibitory effect of the compound was determined by analyzing the ratio of 665 nm/620 nm. Tag 1-PD-L1 was diluted with Diluent buffer (cat #62DLBDDF) to a working concentration of 10 nM, Tag 2-PD-1 was diluted with Diluent buffer to a working concentration of 500 nM, and Anti-Tag1-Eu^3+ was diluted with detection buffer (cat #62DB1FDG) by 1:100, Anti-Tag2-XL 665 was diluted with detection buffer by 1:20, and the test compound was diluted with Diluent buffer to a final concentration of 2×. In a 384-well plate, 2 μL of compound was added to each well, and then 4 μL of Tag 1-PD-L1, 4 μL of Tag 2-PD-1 were added and incubated at room temperature for 15 minutes. 5 μL Anti-Tag1-Eu^3+ and 5 μL Anti-Tag2-XL 665 were added and incubated overnight at room temperature, and detected with BioTek Synergy™ Neo2 Multifunctional Microplate Reader to obtain the ratio of 665 nm/620 nm. The IC50 curve was fitted by GraphPad Prism 5.02.

Sequence of PD-L1 (Q9NZQ7 19-238): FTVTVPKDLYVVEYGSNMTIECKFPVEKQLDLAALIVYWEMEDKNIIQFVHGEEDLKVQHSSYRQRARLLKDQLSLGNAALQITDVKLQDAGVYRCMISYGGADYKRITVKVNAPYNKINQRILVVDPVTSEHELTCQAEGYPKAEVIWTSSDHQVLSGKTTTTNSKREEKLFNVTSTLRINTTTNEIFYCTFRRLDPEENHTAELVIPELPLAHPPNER

pIC50 | SMILES
> 8.00 | COc1nc(OCc2cccc(-c3cccc(COc4ccc(CNCC(N)=O)c(OC)n4)c3Cl)c2Cl)ccc1CNCC(N)=O [Compound 73]
6.00 to 7.00 | COC(=O)[C@@H]1C[C@H](O)CN1Cc1ccc(OCc2cccc(-c3cccc(COc4ccc(CN5C[C@@H](O)C[C@H]5C(=O)OC)c(OC)n4)c3Cl)c2Cl)nc1OC [Compound 48]
> 8.00 | COc1nc(OCc2cccc(-c3cccc(COc4ccc(CN5CC[C@H](O)C5)c(OC)n4)c3Cl)c2Cl)ccc1CN1CC[C@H](O)C1 [Compound 62]
7.00 to 8.00 | COc1nc(OCc2cccc(-c3cccc(COc4ccc(CN5C[C@@H](O)C[C@H]5C(=O)O)c(OC)n4)c3Cl)c2Cl)ccc1CO [Compound 57]
> 8.00 | COc1nc(OCc2cccc(-c3cccc(COc4ccc(CN5C[C@@H](O)C[C@H]5C(=O)O)c(OC)n4)c3C#N)c2C)ccc1CN1C[C@@H](O)C[C@H]1C(=O)O [Compound 56]
> 8.00 | COc1nc(OCc2cccc(-c3cccc(COc4ccc(CN(CCO)CCO)c(OC)n4)c3Cl)c2Cl)ccc1CN(CCO)CCO [Compound 72]
> 8.00 | CC(=O)NCCNCc1cc(Cl)c2nc(-c3cccc(-c4cccc(-c5nc6c(Cl)cc(CNCCNC(C)=O)cn6n5)c4C)c3C)nn2c1 [Compound 45]
> 8.00 | COc1nc(OCc2cccc(-c3cccc(COc4ccc(CNCCS(N)(=O)=O)c(OC)n4)c3Cl)c2Cl)ccc1CNCCS(N)(=O)=O [Compound 78]
6.00 to 7.00 | COc1nc(OCc2cccc(-c3cccc(COc4ccc(CN5CCCC(C(N)=O)C5)c(OC)n4)c3C)c2C)ccc1CN1CCCC(C(N)=O)C1 (stereo not drawn) [Compound 53]
7.00 to 8.00 | COc1nc(OCc2cccc(-c3cccc(COc4ccc(CN5CCCC5CC(=O)O)c(OC)n4)c3C)c2C)ccc1CN1CCCC1CC(=O)O (stereo not drawn) [Compound 39]
7.00 to 8.00 | COc1nc(OCc2cccc(-c3cccc(COc4ccc(CNC5CNC(=O)C5)c(OC)n4)c3C)c2C)ccc1CNC1CNC(=O)C1 (stereo not drawn) [Compound 55]
7.00 to 8.00 | COc1nc(OCc2cccc(-c3cccc(COc4ccc(CN5CCC(CC#N)CC5)c(OC)n4)c3C)c2C)ccc1CN1CCC(CC#N)CC1 [Compound 59]
> 8.00 | COc1nc(OCc2cccc(-c3cccc(COc4ccc(CN5CC(O)(C(=O)O)C5)c(OC)n4)c3C)c2C)ccc1CN1CC(O)(C(=O)O)C1 [Compound 42]
7.00 to 8.00 | COc1nc(OCc2cccc(-c3cccc(COc4ccc(CN5CC(CC#N)C5)c(OC)n4)c3C)c2C)ccc1CN1CC(CC#N)C1 [Compound 61]
> 8.00 | COc1nc(OCc2cccc(-c3cccc(COc4ccc(CNC(C)(CO)CO)c(OC)n4)c3C)c2C)ccc1CNC(C)(CO)CO [Compound 50]
7.00 to 8.00 | COc1nc(OCc2cccc(-c3cccc(COc4ccc(CNCC(N)C(F)(F)F)c(OC)n4)c3Cl)c2Cl)ccc1CNCC(N)C(F)(F)F (stereo not drawn) [Compound 82]
> 8.00 | COc1nc(OCc2cccc(-c3cccc(COc4ccc(CN5C[C@@H](O)C[C@H]5C(=O)O)c(OC)n4)c3Cl)c2Cl)ccc1CN1CC[C@H](O)C1 [Compound 58]
< 6.00 | COc1nc(OCc2sc(C)c(COc3ccc(CNCCNC(C)=O)c(OC)n3)c2C)ccc1CNCCNC(C)=O [Compound 40]
> 8.00 | COc1nc(OCc2cccc(-c3cccc(COc4ccc(CNC(CCO)C(=O)O)c(OC)n4)c3C)c2C)ccc1CNC(CCO)C(=O)O (stereo not drawn) [Compound 67]
> 8.00 | COc1nc(OCc2cccc(-c3cccc(COc4ccc(CN5CC(O)C(CC#N)C5)c(OC)n4)c3C)c2C)ccc1CN1CC(O)C(CC#N)C1 (stereo not drawn) [Compound 65]
7.00 to 8.00 | COc1nc(OCc2cccc(-c3cccc(COc4ccc(CNC5CCOC5=O)c(OC)n4)c3C)c2C)ccc1CNC1CCOC1=O (stereo not drawn) [Compound 64]
> 8.00 | COc1nc(OCc2cccc(-c3cccc(COc4ccc(CN[C@@H](CC(N)=O)C(=O)O)c(OC)n4)c3C)c2C)ccc1CN[C@@H](CC(N)=O)C(=O)O [Compound 49]
7.00 to 8.00 | COC(=O)[C@@H]1C[C@H](O)CN1Cc1ccc(OCc2cccc(-c3cccc(COc4ccc(CN5C[C@@H](O)C[C@H]5C(=O)OC)c(OC)n4)c3C)c2C)nc1OC [Compound 41]
> 8.00 | COc1nc(OCc2cccc(-c3cccc(COc4ccc(CNCc5nnn[nH]5)c(OC)n4)c3Cl)c2Cl)ccc1CNCc1nnn[nH]1 [Compound 75]
> 8.00 | COc1nc(OCc2cccc(-c3cccc(COc4ccc(CN[C@H](C(=O)O)[C@@H](C)O)c(OC)n4)c3C)c2C)ccc1CN[C@H](C(=O)O)[C@@H](C)O [Compound 51]
7.00 to 8.00 | CNS(=O)(=O)CCNCc1ccc(OCc2cccc(-c3cccc(COc4ccc(CNCCS(=O)(=O)NC)c(OC)n4)c3Cl)c2Cl)nc1OC [Compound 80]
> 8.00 | CNC(=O)CNCc1ccc(OCc2cccc(-c3cccc(COc4ccc(CNCC(=O)NC)c(OC)n4)c3Cl)c2Cl)nc1OC [Compound 77]
> 8.00 | COc1nc(OCc2cccc(-c3cccc(COc4ccc(CN5CCC6(CCC(=O)N6)C5)c(OC)n4)c3C)c2C)ccc1CN1CCC2(CCC(=O)N2)C1 (stereo not drawn) [Compound 60]

Continued, compound first:

SMILES | pIC50
CC(=O)NCCNCC(=O)Nc1cnn(Cc2cccc(-c3cccc(Cn4cc(NC(=O)CNCCNC(C)=O)cn4)c3C)c2C)c1 [Compound 25] | < 6.00
COc1nc(OCc2cccc(COc3ccc(CNCCNC(C)=O)c(OC)n3)n2)ccc1CNCCNC(C)=O [Compound 18, N,N-((((((pyridine-2,6-diyl-bis (methylene))bis (oxo))bis (2-methoxypyridine-6,3-diyl))bis (methylene))bis (azetanediyl))bis (ethane-2,1-diyl)) diacetamide] | < 6.00
COc1nc(OCc2cccc(-c3cccc(COc4ccc(CN5CCCC[C@@H]5C(=O)O)c(OC)n4)c3C)c2C)ccc1CN1CCCC[C@@H]1C(=O)O [Compound 27] | > 8.00
COc1nc(OCc2cccc(-c3cccc(COc4ccc(CN5CCCC[C@H]5C(=O)O)c(OC)n4)c3C)c2C)ccc1CN1CCCC[C@H]1C(=O)O [Compound 26] | > 8.00
COc1nc(OCc2cccc(-c3cccc(CO)c3C)c2C)ccc1CNC(=O)C(F)(F)F [Compound 1, 2,2,2-trifluoro-N-((6-((3′-(hydroxymethyl)-2,2′-dimethyl-[1,1′-biphenyl]-3-yl)methoxy)-2-methoxypyridin-3-yl)methyl)acetamide] | < 6.00
CC(=O)NCCNCc1cc2nc(OCc3cccc(-c4cccc(COc5ccc6[nH]c(CNCCNC(C)=O)cc6n5)c4C)c3C)ccc2[nH]1 [Compound 34] | 7.00 to 8.00
COc1cc(OCc2cccc(-c3cccc(CO)c3C)c2C)cc(OC)c1CNCCNC(C)=O [Compound 10, N-(2-((4-((3′-(hydroxymethyl)-2,2′-dimethyl-[1,1′-biphenyl]-3-yl)methoxy)-2,6-dimethoxybenzyl)amino)ethyl) acetamide] | < 6.00
COc1nc(OCc2cccc(-c3cccc(COc4ccc(CNCC(C)C(=O)O)c(OC)n4)c3C)c2C)ccc1CNCC(C)C(=O)O (stereo not drawn) [Compound 33] | 7.00 to 8.00
COc1nc(OCc2cccc(-c3cccc(CO)c3C)c2C)ccc1N [Compound 8] | < 6.00
COc1nc(OCc2cccc(-c3cccc(COc4ccc(CN5CCC5C(=O)O)c(OC)n4)c3C)c2C)ccc1CN1CCC1C(=O)O (stereo not drawn) [Compound 35] | > 8.00
COc1nc(OCc2cccc(-n3cnc(COc4ccc(CNCCNC(C)=O)c(OC)n4)c3C)c2C)ccc1CNCCNC(C)=O [Compound 38] | < 6.00
COc1nc(OCc2cccc(-c3cccc(CO)c3C)c2C)ccc1CCN [Compound 15, (3′-(((5-(2-aminoethyl)-6-methoxypyridin-2-yl)oxo)methyl)-2,2′-dimethyl-[1,1′-biphenyl]-3-yl) methanol] | 6.00 to 7.00
Cc1c(CO)cccc1-c1cccc(COc2cccc(CN)n2)c1C [Compound 7, (3′-(((6-(aminomethyl)pyridin-2-yl)oxo)methyl)-2,2′-dimethyl-[1,1′-biphenyl]-3-yl)methanol] | < 6.00
COc1nc(OCc2cccc(-c3cccc(COc4ccc(CNCCC(N)=O)c(OC)n4)c3C)c2C)ccc1CNCCC(N)=O [Compound 22] | 7.00 to 8.00
COc1nc(OCc2cccc(-c3ccccc3)c2C)ccc1CN [Compound 23] | 6.00 to 7.00
COc1nc(OCc2cccc(-c3cccc(COc4ccc(CNCCNC(C)=O)c(OC)n4)c3C)c2)ccc1CNCCNC(C)=O [Compound 28] | 7.00 to 8.00
COc1nc(OCc2cccc(COc3ccc(CNCCNC(C)=O)c(OC)n3)c2C)ccc1CNCCNC(C)=O [Compound 19] | 6.00 to 7.00
COc1nc(OCc2cccc(-n3nc(C)c(COc4ccc(CNCCNC(C)=O)c(OC)n4)c3C)c2C)ccc1CNCCNC(C)=O [Compound 29] | < 6.00
COc1cc(N)cc(OCc2cccc(-c3cccc(CO)c3C)c2C)n1 [Compound 12, (3′-(((4-amino-6-methoxypyridin-2-yl)oxo)methyl)-2,2′-dimethyl-[1,1′-biphenyl]-3-yl)methanol] | < 6.00
Cc1c(CO)cccc1-c1cccc(COc2cccc(N)n2)c1C [Compound 13, (3′(((6-aminopyridin-2-yl)oxo)methyl)-2,2′-dimethyl-[1,1′-biphenyl]-3-yl) methanol] | < 6.00
